The test system of data set [1] is pqsA promoter (PA14 PpqsA-GFPASV). Nature of the data set: pqsA-GFP reporter expression. The format is cell-based, Pseudomonas aeruginosa. The settings on record: for % Production pqsA-GFP: PA14 PpqsA-GFPASV, 50µM per b210 (method b76 says 10 µM).
The next data set concerns the target T1, MvfR protein (MvfRC87) (Pseudomonas aeruginosa, UniProt Q9I4X0).
T1 construct: The MvfRC87 protein purified as in Xiao et. al., 2006; made in house
The format is binding. Particulars: SPR. The procedure: The selected compounds were tested for their ability to bind to MvfR. Target validation was carried out by using surface plasmon resonance (SPR). The MvfRC87 protein purified as in Xiao et. al., 2006[33] was covalently immobilized on a CM7 Series S sensor chip using an amine coupling reagent kit (GE Healthcare) at the range level of 3000 to 5000 response units (RU). RU was analyzed by Biacore T200 evaluation software 2.0 (GE Healthcare). The relative response units (RUs) 5 seconds before the end of the association were extracted from the double-reference-corrected sensor grams at different concentrations. These responses were plotted against their respective concentrations for MvfR inhibitor alone and in the presence of native MvfR ligand PQS and compared to the calculated responses for the mixture expected for different binding sites.

For data set [2], the system named is MvfR-regulated small molecules in PA14. Nature of the data set: Production of HAQs, 2-AA, DHQ and AA in PA14 cultures (LC-MS). Particulars: for % Production 2-AA / % Production DHQ / % Production HHQ / % Production HQNO / % Production PQS / % Production AA: PA14, 50µM inhibitor; for % Production AA: anthranilic acid, precursor control; for activity at 50 µM / inhibition at 50 µM: Pseudomonas aeruginosa.
Procedure: The HAQs HHQ, PQS, HQNO, and non-HAQs: 2-AA and DHQ produced by PA14 cells were quantified in the presence of NAMs. The overnight grown starter culture was diluted 1:100 in 5 mL LB media in a glass tube and was allowed to grow in the presence (50 µM) or absence of compound at 37 °C and 200 rpm in an incubator shaker until OD600 was 3. Bacterial cultures were subsequently mixed 1:1 (400 μL: 400 μL) with 100% methanol containing 20 ppm (20 μg mL^−1) of tetradeutero-PQS (PQS-D4) and 10 ppm of tetradeutero-HHQ (HHQ-D4) in a 1.5 mL Eppendorf tube. The mixture was vortexed for 5 seconds and spun down for 5 minutes at 12,000 x g. A 700 μL aliquot of the supernatant was removed and stored in glass vials at −20 °C until further liquid chromatography-mass spectrophotometry (LC/MS) analysis as previously described in Lepine et al., 2003[66]. LC/MC analysis was performed using a Micromass Quattro II triple quadrupole mass spectrometer (Micromass Canada, Pointe-Claire, Canada) in positive electrospray ionization mode, interfaced to an HP1100 HPLC equipped with a 4.5 × 150 mm reverse-phase C8 column.
GraphPad Prism 9.2.0 software was used to plot the IC50 curve against the percent inhibition of these small molecules’ production at each concentration.

Data set [3] concerns pyocyanin production in PA14. Briefly: Pyocyanin production assay. The settings on record: for % Production Pyocyanin: PA14, 50µM of each inhibitor (method says 10 μM), vs vehicle.
Data set [4] has as its target MvfR binding to the pqsA promoter (Pseudomonas aeruginosa, UniProt Q9I4X0). The data set is classed as cell-based. The settings on record: D88 −, PQS +; Figure 5c; replicates.
Data set [5] in a line: Solubility in iPBS pH 7.4 by HPLC. The data set is classed as physicochemical. The settings on record: pH 7.4, aqueous with cosolvent or surfactant or cyclodextrin, kinetic from dmso stock. The procedure:
Solubility of the 10 mM compounds dissolved in DMSO was tested in the isotonic phosphate buffer (iPBS) at pH 7.4 using High-Performance Liquid Chromatography (HPLC). For the preparation of iPBS phosphate-buffered saline tab (Sigma-Aldrich 08057-12Tab-F) is dissolved in 500 mL of deionized water and the final composition of the solution contains 10 mM PBS, 2.7 mM KCl, 140 mM NaCl and 0.05% Tween. A total 10 µL of the compound from a 10 mM stock solution in DMSO was added to the vial, and 190 µL of buffer was added to each vial and mixed with shaking at room temperature for 4 h. Thereafter the samples were filtered, and 160 µL of the sample was mixed with 40 µL of DMSO for the final injection. Ibuprofen (high solubility) and Progesterone (low Solubility) were used as standard compounds. Ammonium Acetate aqueous solution (50 mM, pH 7.4) and the acetonitrile were used as mobile phases A and B, respectively. The measurement of concentration was achieved by comparing of UV absorbance of the sample solution and the known standard solution following an HPLC separation using a generic fast gradient method. The solubility of each compound is expressed by the ratio of compound amount in the sample test solution to the amount of compound in the standard solution.

For the next data set, the system named is ΔmvfR biofilm. Briefly: Biofilm formation of ΔmvfR mutant (off-target). Particulars: Pseudomonas aeruginosa, PA14, 24 h, read-out: Biofilm formation, ΔmvfR + compound; PA14 about 100; single replicates (Figure 4c).
The test system of data set [6] is mvfR mutant constitutively expressing the pqsABCDE operon. The format is cell-based. The settings on record: Pseudomonas aeruginosa, control about 100, single replicates (Figure 4a).
The test system of data set [7] is 16 MDR P. aeruginosa clinical isolates. Briefly: Pyocyanin production in MDR clinical isolates. The settings on record: Pseudomonas aeruginosa, 18 h, Control about 100, replicates.
Procedure: The over-day culture was grown to OD600nm 1.5., diluted again at 1:10,000 in 5 mL LB and incubated with 10 μM of the test compound or the vehicle control for 18 hours at 37 °C and 200 rpm in an incubator shaker. After 18 h, 1 mL of culture was centrifuged for 2 min at 20.000 x g. The supernatant was transferred to a new tube, 200 μL of this were loaded in a flat-bottom 96-well plate, and the pyocyanin levels were quantified by measuring at OD690nm in the infinite F200 plate reader using the Magellan software (Tecan, Switzerland). The same procedure was also followed for the pyocyanin production assessment for all the P. aeruginosa clinical isolates assessed in this study. The percent of pyocyanin was calculated compared to the PA14 culture grown in the absence of compounds.
Pyocyanin production was measured in 16 P.
aeruginosa clinical isolates 18hr post-growth in the presence or absence of 10 µM of each NAM
compound. The percent of pyocyanin production was calculated by comparing the same strain grown
in the presence of the vehicle control. b.
The test system of data set [8] is PA14 isogenic mutant ΔmvfR AT/P cells. Briefly: AT/P cell formation in ΔmvfR mutant (off-target). Particulars: Pseudomonas aeruginosa, PA14, 24 h, read-out: AT/P cell formation, ΔmvfR + compound; PA14 about 100; single replicates (Figure 4b).
Procedure: Cells were grown in the presence of 10 μg mL^−1 meropenem, with or without 10 µM of the compounds for 24 h. Values were normalized to cells grown for 4 h in the absence of antibiotics and compounds. The ∆mvfR cells grown with antibiotics and vehicles were considered control, and the percentage values were calculated compared to control. c Biofilm formation of mutant ∆mvfR cells with or without compound. […] The number of biological replicates for each compound and strain is depicted in the graph. The error bars denote ±SEM.
The AT/P cell formation assay was performed according to the method previously described in Starkey et al., 2014 (persister cell assay). The over-day culture was incubated at 37 °C with shaking at 200 rpm until the culture OD600nm was 3.0. The culture was then diluted at 1:100 and grown in the same conditions for 4 h. After 4 h, 200 µL were collected, and serial dilutions were plated on LB agar plates for CFU quantification (as normalizers). The remainder of the culture was treated with meropenem to a final concentration of 100 × MIC (Minimum Inhibitory Concentration; 10 mg L^−1) and compounds at a final concentration of 10 µM. After 24 h, culture aliquots were 10-fold serially diluted in LB broth and plated on LB agar for CFU quantification. The AT/P fraction was determined as the normalizers (pre-antibiotic) ratio divided by the AT/P fraction (24 h post-antibiotic)[22].
For the next data set, the system named is PA14 AT/P cells. Briefly: AT/P cells formation assay in PA14. The format is cell-based, Pseudomonas aeruginosa. The settings on record: Pseudomonas aeruginosa, PA14, 24 h, read-out: inhibition of AT/P cells formation.

In brackets after ≈: the same amount, converted by molar mass. Several values for one entry are separate records, joined by “and”; a condition that tells them apart may be missing. Equal values may be shown once. Read-outs that look alike come from different tables or passages of the source.

Chain of MvfR binding to the pqsA promoter (Q9I4X0 whole entry, looked up): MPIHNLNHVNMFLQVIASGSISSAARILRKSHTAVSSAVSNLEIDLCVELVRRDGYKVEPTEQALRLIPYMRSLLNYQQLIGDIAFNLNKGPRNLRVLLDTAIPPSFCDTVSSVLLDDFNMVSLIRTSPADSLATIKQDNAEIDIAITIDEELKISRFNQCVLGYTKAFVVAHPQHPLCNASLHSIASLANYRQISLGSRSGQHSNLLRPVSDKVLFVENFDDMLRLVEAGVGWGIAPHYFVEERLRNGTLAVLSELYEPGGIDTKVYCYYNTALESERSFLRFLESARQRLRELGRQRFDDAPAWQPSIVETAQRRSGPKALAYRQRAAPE
T1 sequence (Q9I4X0 87-332): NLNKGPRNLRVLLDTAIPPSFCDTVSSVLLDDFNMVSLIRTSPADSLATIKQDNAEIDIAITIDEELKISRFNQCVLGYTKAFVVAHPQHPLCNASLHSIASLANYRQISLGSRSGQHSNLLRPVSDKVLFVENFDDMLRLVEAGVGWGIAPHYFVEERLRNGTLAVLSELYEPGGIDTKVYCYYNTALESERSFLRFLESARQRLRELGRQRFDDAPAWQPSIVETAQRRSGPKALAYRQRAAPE
Procedure for ΔmvfR biofilm: Biofilm was grown in the 96-well microtiter plate at 37 °C for 24 h containing M63 minimal media in the presence of 10 µM of the compounds or vehicle. The biofilm grown with the vehicle was considered as a control. The percentage value was calculated in comparison to the PA14 control. a–c Data represent at least n = 3, each dot on the graph represents one biological replicate. The number of biological replicates for each compound and strain is depicted in the graph. The error bars denote ±SEM.
The overnight grown starter culture was diluted 1:1000 in 5 mL LB media in a glass tube and was incubated at 37 °C and 200 rpm in an incubator shaker until the culture reached an OD600nm 3.0. The culture was then diluted at 1:100 in M63 minimal media supplemented with 0.2% glucose, 0.5% Casamino Acids, and 1 mM MgSO4. Initiation of the Biofilm formation was performed in the 96 well plates; 200 µL of diluted culture was added in the wells with (10 µM) or without compounds. The cultures were allowed to grow at 37 °C in static conditions for 24 hours. Thereafter, planktonic culture was removed from the wells, and wells were washed three times with distilled water (DW). Biofilm was stained with 0.1% crystal violet and incubated for 15 min at room temperature (RT). Access dye was removed from the wells and washed off three times with DW, and 200 µL ethanol: acetone (80:20) was added to the wells. The plate was incubated for 30 min at RT, and the OD was measured by spectrophotometry at 570 nm in the infinite F200 plate reader using the Magellan software (Tecan, Switzerland). Percent biofilm formation was calculated in comparison to PA14 culture that was grown in the absence of compounds.

Regarding `Cc1cc(F)ccc1NCC(=O)Nc1ccc(C#N)cc1` [M17], the “% Production pqsA-GFP” value in data set [1] was determined as 32%. The “Response Unit (RU)” value at MvfR protein (MvfRC87) (Concentration 1.00E-05 M) is listed as 18.8 RU; at MvfR protein (MvfRC87) (Concentration 1.00E-06 M), 6.7 RU; on MvfR protein (MvfRC87) (Concentration 1.00E-07 M) it was 1.3 RU; at MvfR protein (MvfRC87) (Concentration 1.00E-08 M) it was 0.7 RU; on MvfR protein (MvfRC87) (Concentration 3.16E-06 M), 12.6 RU; at MvfR protein (MvfRC87) (Concentration 3.16E-07 M), 3 RU. The “Response Unit (RU)” value at MvfR protein (MvfRC87) (Concentration 3.16E-08 M) is on record as 0.7 RU. Also, in [2], the “% Production 2-AA” value is 101%. The “% Production DHQ” value in [2] is recorded as 135%. The “% Production HHQ” value in data set [2] amounted to 3%. Further, in data set [2], the “% Production HQNO” value amounted to 17%. The “% Production PQS” value in [2] is reported as 11%. In addition, the “% Production AA” value in data set [2] came to 100%. Also, the “% Production Pyocyanin” value in data set [3] is recorded as 67%.
Take `CCCCCCCc1nc2ccccc2c(O)c1O` [PQS]: the “MvfR binding to the pqsA promoter (ChIP-qPCR)” value in data set [4] is 12.2267 and 11.783 and 5.7525.
Broadly, the solubility is the dissolved amount per volume that the medium holds. A low value points to little dissolved substance. With `N#Cc1ccc(NC(=O)CC(=O)Nc2ccc(C#N)c(Cl)c2)cc1` [D95], in data set [5], the solubility at 4 h came to 17 µM (≈ 5.76 µg/mL). Moreover, the activity at 50 µM in data set [1] (Pseudomonas aeruginosa, PA14, read-out: % Production pqsA-GFP) was 6%; in [6] (read-out: DHQ, ΔmvfR-pqsABCD strain) it was 95.2%; in data set [6] (read-out: HQNO, ΔmvfR-pqsABCD strain) it was 97.2%; in data set [6] (read-out: PQS, ΔmvfR-pqsABCD strain) it was 100%; in data set [2] (PA14, read-out: % Production 2-AA), 11%; in data set [2] (PA14, read-out: % Production AA) it was 774%. For the same molecule, the activity at 50 µM came out at 13% in [2] (PA14, read-out: % Production DHQ); 5% in data set [2] (PA14, read-out: % Production HHQ); 30% in data set [2] (PA14, read-out: % Production HQNO); 10% in data set [2] (PA14, read-out: % Production PQS); 4% in data set [3] (Pseudomonas aeruginosa, PA14, 18 h, read-out: % Production Pyocyanin). Also, the IC50 in data set [1] (Pseudomonas aeruginosa, PA14, read-out: IC50 pqsA-GFP expression, PA14, 13 concentrations) turned out to be 1.09 µM; in data set [3] (Pseudomonas aeruginosa, PA14, read-out: IC50 pyocyanin production), 0.9 µM. The activity at 10 µM in the data set with ΔmvfR biofilm is 17.7%; in data set [7] (read-out: Pyocyanin production relative to Control, clinical isolate LGR-4325), 11.5%; in data set [7] (read-out: Pyocyanin production relative to Control, clinical isolate LGR-4326), 6.63%; in data set [7] (read-out: Pyocyanin production relative to Control, clinical isolate LGR-4327), 14.1%; in [7] (read-out: Pyocyanin production relative to Control, clinical isolate LGR-4328) it was 16.3%; in [7] (read-out: Pyocyanin production relative to Control, clinical isolate LGR-4330), 19.6%. Further, the activity at 10 µM worked out at 14.8% in data set [7] (read-out: Pyocyanin production relative to Control, clinical isolate LGR-4331 (first section, r117)); 7.46% in data set [7] (read-out: Pyocyanin production relative to Control, clinical isolate LGR-4331 (second section, r140)); 9.75% in data set [7] (read-out: Pyocyanin production relative to Control, clinical isolate LGR-4333); 12.1% in data set [7] (read-out: Pyocyanin production relative to Control, clinical isolate LGR-4343); 14.6% in [7] (read-out: Pyocyanin production relative to Control, clinical isolate LGR-4344); 19.2% in [7] (read-out: Pyocyanin production relative to Control, clinical isolate LGR-4348). Also, the activity at 10 µM was 7.92% in data set [7] (read-out: Pyocyanin production relative to Control, clinical isolate LGR-4356); 30.4% in data set [7] (read-out: Pyocyanin production relative to Control, clinical isolate LGR-4362); 9.55% in [7] (read-out: Pyocyanin production relative to Control, clinical isolate LGR-4363); 8.11% in [7] (read-out: Pyocyanin production relative to Control, clinical isolate LGR-4364 (first section, r326)); 13.7% in [7] (read-out: Pyocyanin production relative to Control, clinical isolate LGR-4364 (second section, r349)); 35.3% in data set [8]. The inhibition at 50 µM in data set [2] (PA14, read-out: HHQ production inhibition) was in the range of 89 to 99%; in [2] (PA14, read-out: HQNO production inhibition) it was 40 to 92%; in data set [2] (PA14, read-out: PQS production inhibition), 76 to 97%; in data set [2] (PA14, read-out: inhibition of 2-AA production), 82 to 95%; in data set [2] (PA14, read-out: inhibition of DHQ production), 82 to 96%. In addition, the inhibition at 10 µM with PA14 AT/P cells is not below 51%.
Turning to `N#Cc1ccc(NC(=O)CC(=O)Nc2cccc(Cl)c2)cc1` [D71], in data set [1], the “% Production pqsA-GFP” value was 10%. Moreover, the “Response Unit (RU)” value came out at 31.7 RU on MvfR protein (MvfRC87) (Concentration 1.00E-05 M); 19.5 RU on MvfR protein (MvfRC87) (Concentration 1.00E-06 M); 5.9 RU on MvfR protein (MvfRC87) (Concentration 1.00E-07 M); 2.4 RU at MvfR protein (MvfRC87) (Concentration 1.00E-08 M); 26.8 RU at MvfR protein (MvfRC87) (Concentration 3.16E-06 M); 11.4 RU on MvfR protein (MvfRC87) (Concentration 3.16E-07 M). In addition, the “Response Unit (RU)” value on MvfR protein (MvfRC87) (Concentration 3.16E-08 M) turned out to be 3.1 RU. In data set [2], the “% Production 2-AA” value was 57%. The “% Production DHQ” value in data set [2] stood at 92%. The “% Production HHQ” value in data set [2] is 106%. In addition, the “% Production HQNO” value in data set [2] was determined as 127%. For the same molecule, the “% Production PQS” value in data set [2] amounted to 105%. The “% Production AA” value in data set [2] stood at 207%. Besides, the “% Production Pyocyanin” value in data set [3] was 13%.
